Values quoted from earlier work, collected in patent US7553503B2, “Phyto-nutraceutical synergistic composition for Parkinson's Disease” (priority 2006, dated 2009).
Each block holds one molecule with its values, some of them ahead of it.

How the values were obtained:
substantia nigra neurons = conditions: MPTP-induced
mouse brain = conditions: pretreatment
[1] = system: patients with tardive dyskinesia; conditions: especially tardive dyskinesia for 5 years or less
[2] = system: bacterial resistance mechanism (multidrug pump); conditions: in vitro, with 5'-methoxyhydnocarpin
[3] = system: brain mitochondria and membranes
[4] = system: patients with early-stage Parkinson's disease
ischemic brain injury = conditions: transient focal ischemia
dopamine D1 receptors = dopamine D1 receptors (Homo sapiens, UniProt P21728)
dopamine D1 receptors, sequence (P21728 whole entry): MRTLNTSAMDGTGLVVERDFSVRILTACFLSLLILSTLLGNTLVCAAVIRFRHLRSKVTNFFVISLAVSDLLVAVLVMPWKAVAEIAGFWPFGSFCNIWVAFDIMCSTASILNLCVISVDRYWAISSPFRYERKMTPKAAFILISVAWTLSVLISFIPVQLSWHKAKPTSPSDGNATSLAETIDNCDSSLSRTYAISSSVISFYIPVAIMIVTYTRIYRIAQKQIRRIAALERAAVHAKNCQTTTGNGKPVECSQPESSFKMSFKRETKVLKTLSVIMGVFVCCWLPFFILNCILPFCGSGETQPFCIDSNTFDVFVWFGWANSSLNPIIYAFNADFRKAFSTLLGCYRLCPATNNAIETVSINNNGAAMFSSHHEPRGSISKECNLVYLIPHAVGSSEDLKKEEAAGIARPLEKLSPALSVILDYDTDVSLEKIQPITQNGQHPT

dopamine D2 receptors = dopamine D2 receptors (Homo sapiens, UniProt P14416)
dopamine D2 receptors, sequence (P14416 whole entry): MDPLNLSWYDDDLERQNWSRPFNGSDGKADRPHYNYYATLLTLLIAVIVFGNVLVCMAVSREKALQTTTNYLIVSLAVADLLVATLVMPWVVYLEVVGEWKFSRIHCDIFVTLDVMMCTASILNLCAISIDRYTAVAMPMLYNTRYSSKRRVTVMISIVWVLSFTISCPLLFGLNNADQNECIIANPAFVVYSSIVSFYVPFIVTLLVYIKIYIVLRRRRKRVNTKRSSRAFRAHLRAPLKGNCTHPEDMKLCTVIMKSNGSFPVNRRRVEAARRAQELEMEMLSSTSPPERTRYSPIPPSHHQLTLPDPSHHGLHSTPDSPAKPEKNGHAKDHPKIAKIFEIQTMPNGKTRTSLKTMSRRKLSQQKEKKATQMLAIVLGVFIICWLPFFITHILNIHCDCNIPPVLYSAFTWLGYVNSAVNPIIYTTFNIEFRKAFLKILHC

[5] = system: alpha 1-adrenergic receptors
[6] = system: alpha 2-adrenergic receptors
[7] = system: dopamine and DOPAC in striatum, DA in hypothalamus; conditions: after administration
[8] = system: HIV-1 viral long terminal repeat-directed gene expression

Molecule: CC(C)=CCC[C@](C)(O[C@@H]1O[C@H](CO)[C@@H](O)[C@H](O)[C@H]1O)[C@H]1CC[C@]2(C)[C@@H]1[C@H](O)C[C@@H]1[C@@]3(C)CC[C@H](O)C(C)(C)[C@@H]3[C@@H](O[C@@H]3O[C@H](CO)[C@@H](O)[C@H](O)[C@H]3O)C[C@]12C [Ginsenoside Rg1]
substantia nigra neurons loss (substantia nigra neurons): protect against substantia nigra neurons loss

Molecule: COc1cc2c(c(OC)c1OC)-c1c(cc3c(c1OC)OCO3)CC(C)C(C)C2 (stereo not drawn) [Schizandrins B]
extent of lipid peroxidation in brain tissue (mouse brain): dose-dependent decrease

Molecule: Vitamin E
severity of tardive dyskinesia [1]: appears to be effective

Molecule: COc1ccc2cc3[n+](cc2c1OC)CCc1cc2c(cc1-3)OCO2 [Berberine]
activity of Berberine alkaloids in the presence of 5'-MHC [2]: strongly potentiated

Molecule: COc1cc2c(c(OC)c1OC)-c1c(cc(OC)c(OC)c1OC)C[C@](C)(O)[C@@H](C)C2 [Schizandrin]
potency of protective action against oxidative stress relative to Schisanhenol [3]: weaker than that of Schisanhenol

Molecule: COC1=C(OC)C(=O)C(C/C=C(\C)CC/C=C(\C)CC/C=C(\C)CC/C=C(\C)CC/C=C(\C)CC/C=C(\C)CC/C=C(\C)CC/C=C(\C)CC/C=C(\C)CCC=C(C)C)=C(C)C1=O [coenzyme Q10, Coenzyme Q10]
disease progression [4]: can slow disease progression

Molecule: COc1cc2c(c(O)c1OC)-c1c(cc(OC)c(OC)c1OC)C[C@@H](C)[C@@H](C)C2 [Schisanhenol]
peroxidative damages of brain mitochondria and membranes [3]: completely inhibited

Molecule: CC(C)(O)[C@@H]1CC[C@](C)([C@H]2[C@@H](O)C[C@@]3(C)[C@@H]4C[C@H](O[C@@H]5O[C@H](CO)[C@@H](O)[C@H](O)[C@H]5O)[C@H]5C(C)(C)[C@@H](O[C@@H]6OC[C@@H](O)[C@H](O)[C@H]6O)CC[C@@]56C[C@@]46CC[C@]23C)O1 [Astragaloside IV]
infarct volume (ischemic brain injury): markedly and significantly reduced

affinity for dopamine D1 receptors (dopamine D1 receptors): no affinity
affinity for dopamine D2 receptors (dopamine D2 receptors): no affinity
affinity for serotonin receptors (serotonin receptors): no affinity
affinity for alpha 1-adrenergic receptors [5]: no affinity
affinity for alpha 2-adrenergic receptors [6]: no affinity
Molecule: COc1cc2c(c(OC)c1OC)-c1c(cc(OC)c(OC)c1OC)C[C@](C)(O)[C@@H](C)C2 [schizandrol A]
dopamine and its metabolite DOPAC (in striatum) and DA (in hypothalamus) [7]: Significant elevations

Molecule: CC1(C)CCC2=C(O1)c1ccccc1C(=O)C2=O [Beta-lapachone]
inhibition of HIV-1 viral long terminal repeat-directed gene expression [8]: potent and selective inhibitor
